Results as given in patent publication US11787785B2 (NOVARTIS AG, priority 2021, dated 2023).

Molecular target: T1, WIZ protein (HiBit-WIZ fusion protein) (Homo sapiens, UniProt O95785+Q96SW2)
T1 construct: expressed in transfected cells
Test: Quantification of WIZ protein levels in HiBit tag fusion protein assay (WIZ HiBit assay in 293T cells)
Assay type: cell-based
Conditions: for Dmax at 25 µM / remaining activity at 25 µM: HEK-293T, 293T cells; for Dmax at 25 µM: 100 − Amax, read-out: % degradation of WIZ (100 − Amax); for remaining activity at 25 µM: DMSO-normalized, curve-fitted percentage of WIZ-HiBit remaining at 25 uM, read-out: WIZ Amax; for DC50: WIZ HiBit assay in 293T cells, 10-point, 5-fold dose response, highest concentration 25 μM, about 18 hours, read-out: WIZ AC50
How it was run: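 HiBit-tagged WIZ (N-terminal tag, HSVTK promoter) stably expressed single-copy in 293T cells; 10-point 1:5 compound series, top 25 μM, ~18 h at 37 °C. Lytic HiBit/LgBit luminescence read; Amax = curve-fitted % WIZ-HiBit remaining at 25 μM, DMSO normalized to 100%.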

T1 sequence (O95785 whole entry, the tested form may be a part): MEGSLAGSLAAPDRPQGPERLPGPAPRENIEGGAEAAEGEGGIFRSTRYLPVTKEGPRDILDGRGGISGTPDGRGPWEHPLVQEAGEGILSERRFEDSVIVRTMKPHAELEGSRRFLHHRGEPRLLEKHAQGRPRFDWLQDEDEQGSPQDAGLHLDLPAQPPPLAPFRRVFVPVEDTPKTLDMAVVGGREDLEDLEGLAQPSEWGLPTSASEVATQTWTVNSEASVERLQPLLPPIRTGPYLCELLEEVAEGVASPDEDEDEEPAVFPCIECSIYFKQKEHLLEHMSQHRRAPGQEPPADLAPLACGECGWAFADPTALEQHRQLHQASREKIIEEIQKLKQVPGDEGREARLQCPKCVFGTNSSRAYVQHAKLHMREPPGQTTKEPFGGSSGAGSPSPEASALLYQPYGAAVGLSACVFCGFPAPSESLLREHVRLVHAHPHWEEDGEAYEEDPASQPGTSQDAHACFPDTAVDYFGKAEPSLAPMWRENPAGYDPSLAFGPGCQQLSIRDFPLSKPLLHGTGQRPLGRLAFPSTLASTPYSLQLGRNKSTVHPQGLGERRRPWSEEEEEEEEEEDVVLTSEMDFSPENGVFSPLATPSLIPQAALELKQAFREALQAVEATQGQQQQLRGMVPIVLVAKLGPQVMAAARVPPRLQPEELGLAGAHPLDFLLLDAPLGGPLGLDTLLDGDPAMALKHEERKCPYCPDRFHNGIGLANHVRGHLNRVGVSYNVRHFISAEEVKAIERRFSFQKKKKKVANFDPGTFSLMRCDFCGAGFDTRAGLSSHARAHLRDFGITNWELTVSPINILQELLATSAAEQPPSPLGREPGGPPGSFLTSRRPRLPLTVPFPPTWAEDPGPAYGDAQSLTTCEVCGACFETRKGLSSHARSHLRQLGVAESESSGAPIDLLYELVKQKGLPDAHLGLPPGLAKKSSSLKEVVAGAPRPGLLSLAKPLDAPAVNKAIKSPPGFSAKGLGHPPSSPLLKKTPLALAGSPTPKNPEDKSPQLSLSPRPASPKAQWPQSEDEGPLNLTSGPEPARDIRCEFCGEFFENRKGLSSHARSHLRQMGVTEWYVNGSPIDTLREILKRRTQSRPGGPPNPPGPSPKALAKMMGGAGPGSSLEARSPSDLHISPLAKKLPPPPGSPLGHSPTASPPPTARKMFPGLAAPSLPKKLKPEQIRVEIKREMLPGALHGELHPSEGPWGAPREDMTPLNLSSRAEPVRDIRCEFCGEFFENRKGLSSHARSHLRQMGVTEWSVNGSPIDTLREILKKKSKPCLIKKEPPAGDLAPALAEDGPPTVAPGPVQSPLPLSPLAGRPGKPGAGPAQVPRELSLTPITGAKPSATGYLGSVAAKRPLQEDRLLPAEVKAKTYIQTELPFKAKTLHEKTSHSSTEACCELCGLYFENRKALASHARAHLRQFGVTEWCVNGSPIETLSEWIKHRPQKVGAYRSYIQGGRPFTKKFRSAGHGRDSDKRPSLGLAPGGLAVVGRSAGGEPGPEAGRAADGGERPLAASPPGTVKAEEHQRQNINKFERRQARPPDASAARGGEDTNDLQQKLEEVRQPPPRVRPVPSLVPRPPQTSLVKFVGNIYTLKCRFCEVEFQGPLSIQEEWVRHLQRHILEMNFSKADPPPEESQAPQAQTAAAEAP
T1 sequence (Q96SW2 whole entry, the tested form may be a part): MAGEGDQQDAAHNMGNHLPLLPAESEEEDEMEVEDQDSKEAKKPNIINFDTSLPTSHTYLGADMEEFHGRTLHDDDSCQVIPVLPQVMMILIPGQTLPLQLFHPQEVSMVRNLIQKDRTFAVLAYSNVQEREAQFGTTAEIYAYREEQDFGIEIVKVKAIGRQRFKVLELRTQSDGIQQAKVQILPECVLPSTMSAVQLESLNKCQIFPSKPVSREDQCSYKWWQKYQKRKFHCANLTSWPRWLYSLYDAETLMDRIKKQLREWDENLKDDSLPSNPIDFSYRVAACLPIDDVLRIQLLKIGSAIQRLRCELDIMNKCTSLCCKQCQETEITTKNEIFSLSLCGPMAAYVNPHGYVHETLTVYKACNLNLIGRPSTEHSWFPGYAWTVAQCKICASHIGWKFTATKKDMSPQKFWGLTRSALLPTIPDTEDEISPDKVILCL
T1 sequence (Q16531 whole entry partner, the tested form may be a part): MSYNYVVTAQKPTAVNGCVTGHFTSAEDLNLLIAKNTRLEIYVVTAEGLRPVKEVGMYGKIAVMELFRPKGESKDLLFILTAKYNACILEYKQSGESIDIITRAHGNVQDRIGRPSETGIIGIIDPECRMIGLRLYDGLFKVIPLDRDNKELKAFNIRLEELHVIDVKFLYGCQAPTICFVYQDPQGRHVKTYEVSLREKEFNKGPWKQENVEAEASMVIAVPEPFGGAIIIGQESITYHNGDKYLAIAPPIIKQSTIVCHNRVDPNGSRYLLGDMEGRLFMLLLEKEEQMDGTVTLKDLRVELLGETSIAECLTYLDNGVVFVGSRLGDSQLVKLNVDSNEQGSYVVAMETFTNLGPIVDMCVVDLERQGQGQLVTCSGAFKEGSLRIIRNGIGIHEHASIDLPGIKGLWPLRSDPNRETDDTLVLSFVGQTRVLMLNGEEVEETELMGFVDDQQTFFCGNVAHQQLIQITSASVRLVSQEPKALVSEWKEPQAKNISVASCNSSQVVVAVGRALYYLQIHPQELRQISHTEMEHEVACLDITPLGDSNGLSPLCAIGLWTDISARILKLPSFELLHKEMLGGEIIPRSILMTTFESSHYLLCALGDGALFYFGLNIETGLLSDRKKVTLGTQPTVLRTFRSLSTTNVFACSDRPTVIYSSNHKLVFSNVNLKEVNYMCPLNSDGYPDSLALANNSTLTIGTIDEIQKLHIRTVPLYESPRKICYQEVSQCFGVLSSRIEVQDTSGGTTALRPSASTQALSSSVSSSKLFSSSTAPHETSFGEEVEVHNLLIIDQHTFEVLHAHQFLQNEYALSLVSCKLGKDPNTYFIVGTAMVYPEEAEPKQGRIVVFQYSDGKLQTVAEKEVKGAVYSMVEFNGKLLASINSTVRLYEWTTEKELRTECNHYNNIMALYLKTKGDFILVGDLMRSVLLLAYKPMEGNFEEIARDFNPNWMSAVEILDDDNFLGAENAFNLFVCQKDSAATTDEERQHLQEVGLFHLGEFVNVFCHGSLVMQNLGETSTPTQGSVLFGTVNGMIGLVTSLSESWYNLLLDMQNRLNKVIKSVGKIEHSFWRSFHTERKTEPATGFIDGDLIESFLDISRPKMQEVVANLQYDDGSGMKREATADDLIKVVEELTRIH

Row | Dmax at 25 µM [%] | remaining activity at 25 µM [%] | DC50 [nM] | SMILES
1 | 54 | 46 | 86 | Cc1cccc(CN2CCN(Cc3ccn4ncc(N5CCC(=O)NC5=O)c4c3)CC2)c1 [Example 190, 1-(5-((4-(3-methylbenzyl)piperazin-1-yl)methyl)pyrazolo[1,5-a]pyridin-3-yl)dihydropyrimidine-2,4(1H,3H)-dione]
2 | 50 | 50 | 683 | O=C1CCN(c2cnn3ccc(CN4CCN(Cc5cccnc5)CC4)cc23)C(=O)N1 [Example 191, 1-(5-((4-(pyridin-3-ylmethyl)piperazin-1-yl)methyl)pyrazolo[1,5-a]pyridin-3-yl)dihydropyrimidine-2,4(1H,3H)-dione]
3 | 86 | 14 | 19 | C[C@H]1CN(Cc2ccn3ncc(N4CCC(=O)NC4=O)c3c2)CCN1CC1CCCCC1 [Example 192, (S)-1-(5-((4-(cyclohexylmethyl)-3-methylpiperazin-1-yl)methyl)pyrazolo[1,5-a]pyridin-3-yl)dihydropyrimidine-2,4(1H,3H)-dione]
4 | 86 | 14 | 10 | C[C@@H]1CC(CN2CCN(Cc3ccn4ncc(N5CCC(=O)NC5=O)c4c3)CC2)C[C@H](C)O1 (stereo partly drawn) [Example 193, 1-(5-((4-(((2R,6S)-2,6-dimethyltetrahydro-2H-pyran-4-yl)methyl)piperazin-1-yl)methyl)pyrazolo[1,5-a]pyridin-3-yl)dihydropyrimidine-2,4(1H,3H)-dione]
5 | 89 | 11 | 3 | O=C1CCN(c2cnn3ccc(CN4CCN(CC56CC7CC(CC(C7)C5)C6)CC4)cc23)C(=O)N1 [Example 194, 1-(5-((4-(((3r,5r,7r)-adamantan-1-yl)methyl)piperazin-1-yl)methyl)pyrazolo[1,5-a]pyridin-3-yl)dihydropyrimidine-2,4(1H,3H)-dione]
6 | 48 | 52 | 2050 | Cn1nccc1CN1CCN(Cc2ccn3ncc(N4CCC(=O)NC4=O)c3c2)CC1 [Example 195, 1-(5-((4-((1-methyl-1H-pyrazol-5-yl)methyl)piperazin-1-yl)methyl)pyrazolo[1,5-a]pyridin-3-yl)dihydropyrimidine-2,4(1H,3H)-dione]
7 | 41 | 59 | 3820 | Cn1cnc(CN2CCN(Cc3ccn4ncc(N5CCC(=O)NC5=O)c4c3)CC2)c1 [Example 196, 1-(5-((4-((1-methyl-1H-imidazol-4-yl)methyl)piperazin-1-yl)methyl)pyrazolo[1,5-a]pyridin-3-yl)dihydropyrimidine-2,4(1H,3H)-dione]
8 | 40 | 60 | 1140 | O=C1CCN(c2cnn3ccc(CN4CCN(Cc5cscn5)CC4)cc23)C(=O)N1 [Example 197, 1-(5-((4-(thiazol-4-ylmethyl)piperazin-1-yl)methyl)pyrazolo[1,5-a]pyridin-3-yl)dihydropyrimidine-2,4(1H,3H)-dione]
9 | 87 | 13 | 9 | C[C@H]1CN(Cc2ccn3ncc(N4CCC(=O)NC4=O)c3c2)CCN1CC1CCCCCC1 [Example 198, (S)-1-(5-((4-(cycloheptylmethyl)-3-methylpiperazin-1-yl)methyl)pyrazolo[1,5-a]pyridin-3-yl)dihydropyrimidine-2,4(1H,3H)-dione]
10 | 86 | 14 | 9 | C[C@@H]1CC(CN2CCN(Cc3ccn4ncc(N5CCC(=O)NC5=O)c4c3)C[C@@H]2C)C[C@H](C)O1 (stereo partly drawn) [Example 199, 1-(5-(((3S)-4-(((2R,6S)-2,6-dimethyltetrahydro-2H-pyran-4-yl)methyl)-3-methylpiperazin-1-yl)methyl)pyrazolo[1,5-a]pyridin-3-yl)dihydropyrimidine-2,4(1H,3H)-dione]
11 | 90 | 10 | 8 | C[C@H]1CN(Cc2ccn3ncc(N4CCC(=O)NC4=O)c3c2)CCN1CC1CCC(C)(C)CC1 [Example 200, (S)-1-(5-((4-((4,4-dimethylcyclohexyl)methyl)-3-methylpiperazin-1-yl)methyl)pyrazolo[1,5-a]pyridin-3-yl)dihydropyrimidine-2,4(1H,3H)-dione]
12 | 88 | 12 | 20 | C[C@H]1CN(Cc2ccn3ncc(N4CCC(=O)NC4=O)c3c2)CCN1C[C@H]1CC[C@H](O)CC1 [Example 201, 1-(5-(((S)-4-(((1r,4S)-4-hydroxycyclohexyl)methyl)-3-methylpiperazin-1-yl)methyl)pyrazolo[1,5-a]pyridin-3-yl)dihydropyrimidine-2,4(1H,3H)-dione]
13 | 85 | 15 | 5 | C[C@H]1CN(Cc2ccn3ncc(N4CCC(=O)NC4=O)c3c2)CCN1CC1CCOCC1 [Example 202]
14 | 84 | 16 | 51 | CC(C)CCN1CCN(Cc2ccn3ncc(N4CCC(=O)NC4=O)c3c2)C[C@@H]1C [Example 204]
15 | 82 | 18 | 24 | C[C@H]1CN(Cc2ccn3ncc(N4CCC(=O)NC4=O)c3c2)CCN1CC1CC(F)(F)C1 [Example 205]
16 | 78 | 22 | 193 | C[C@H]1CN(Cc2ccn3ncc(N4CCC(=O)NC4=O)c3c2)CCN1CCC1CCOCC1 [Example 206]
17 | 60 | 40 | 580 | C[C@H]1CN(Cc2ccn3ncc(N4CCC(=O)NC4=O)c3c2)CCN1Cc1cccnc1 [Example 208]

Row | Dmax at 25 µM [%] | remaining activity at 25 µM [%] | DC50 [nM] | SMILES
18 | 74 | 26 | 380 | C[C@H]1CN(Cc2ccn3ncc(N4CCC(=O)NC4=O)c3c2)CCN1CC1CCCO1 (stereo partly drawn) [Example 209]
19 | 86 | 14 | 33 | CO[C@H]1CC[C@@H](CN2CCN(Cc3ccn4ncc(N5CCC(=O)NC5=O)c4c3)C[C@@H]2C)CC1 [Example 211, 1-(5-(((S)-4-(((1s,4R)-4-methoxycyclohexyl)methyl)-3-methylpiperazin-1-yl)methyl)pyrazolo[1,5-a]pyridin-3-yl)dihydropyrimidine-2,4(1H,3H)-dione]
20 | 84 | 16 | 29 | C[C@H]1CN(Cc2ccn3ncc(N4CCC(=O)NC4=O)c3c2)CCN1CC1CCCC1 [Example 212]
21 | 81 | 19 | 48 | C[C@H]1CN(Cc2ccn3ncc(N4CCC(=O)NC4=O)c3c2)CCN1CC1CCC1 [Example 213, (S)-1-(5-((4-(cyclobutylmethyl)-3-methylpiperazin-1-yl)methyl)pyrazolo[1,5-a]pyridin-3-yl)dihydropyrimidine-2,4(1H,3H)-dione]
22 | 65 | 35 | 151 | C[C@@H]1CN(Cc2ccn3ncc(N4CCC(=O)NC4=O)c3c2)CCN1CC1CCCCC1 [Example 214]
23 | 19 | 81 | 2620 | C[C@@H]1CN(Cc2ccn3ncc(N4CCC(=O)NC4=O)c3c2)CCN1Cc1cccnc1 [Example 215]
24 | 65 | 35 | 89 | CC(C)CN1CCN(Cc2ccn3ncc(N4CCC(=O)NC4=O)c3c2)C[C@H]1C [Example 216]
25 | 75 | 25 | 92 | C[C@@H]1CN(Cc2ccn3ncc(N4CCC(=O)NC4=O)c3c2)CCN1CC1CCOCC1 [Example 217]
26 | 71 | 29 | 68 | C[C@@H]1CN(CC2CCCCC2)CCN1Cc1ccn2ncc(N3CCC(=O)NC3=O)c2c1 [Example 218]
27 | 75 | 25 | 212 | C[C@@H]1CN(CC2CCOCC2)CCN1Cc1ccn2ncc(N3CCC(=O)NC3=O)c2c1 [Example 219]
28 | 66 | 34 | 133 | CC(C)CN1CCN(Cc2ccn3ncc(N4CCC(=O)NC4=O)c3c2)[C@H](C)C1 [Example 220]
29 | 54 | 46 | 318 | C[C@H]1CN(CC2CCCCC2)CCN1Cc1ccn2ncc(N3CCC(=O)NC3=O)c2c1 [Example 221]
30 | 64 | 36 | 457 | CC(C)CN1CCN(Cc2ccn3ncc(N4CCC(=O)NC4=O)c3c2)[C@@H](C)C1 [Example 222]
31 | 51 | 49 | 877 | C[C@H]1CN(CC2CCOCC2)CCN1Cc1ccn2ncc(N3CCC(=O)NC3=O)c2c1 [Example 223]
32 | 45 | 55 | 854 | C[C@H]1CN(CC2CCC2)CCN1Cc1ccn2ncc(N3CCC(=O)NC3=O)c2c1 [Example 224]
33 | 32 | 68 | 1050 | C[C@H]1CN(CC2CCCO2)CCN1Cc1ccn2ncc(N3CCC(=O)NC3=O)c2c1 (stereo partly drawn) [Example 225]
34 | 45 | 55 | 1230 | C[C@H]1CN(CC2CC(F)(F)C2)CCN1Cc1ccn2ncc(N3CCC(=O)NC3=O)c2c1 [Example 226, (S)-1-(5-((4-((3,3-difluorocyclobutyl)methyl)-2-methylpiperazin-1-yl)methyl)pyrazolo[1,5-a]pyridin-3-yl)dihydropyrimidine-2,4(1H,3H)-dione]
